Source: patent US20120071475A1, “UREA DERIVATIVES HAVING PI3K-INHIBITING ACTIVITY” (SHIONOGI & CO., LTD., priority 2009, published 2012)
pKi: −log10 of the molar value. Like-named read-outs stand apart in the source and are kept apart here.

Columns and labels:
PI3Kγ [1] = target: T1, PI3Kγ (Homo sapiens, UniProt P48736); test: PI3Kγ inhibitory activity (Ki value); type: biochemical
Method: The PI3Kγ inhibitory activity (Ki value) of a compound was evaluated according to the following procedure:
5 μL of a compound solution containing 10% DMSO and […] of a compound was changed to 5 μL of a compound solution containing 10% DMSO and either 200, 64, 20, 6.4, 2, 0.64, or 0.20 μmol/L of the compound (optionally, this is diluted to a lower concentration). Using a method similar to the method for measuring PI3Kγ inhibitory activity, inhibition ratios of PI3Kγ were measured in the presence of the compound at 50, 16, 5, 1.6, 0.5, 0.16, and 0.05 μmol/L (optionally, a lower concentration). Then an IC50 value was calculated by a logistic approximation method or the linear regression method using two concentrations that cross 50% inhibition. Separately, the ATP concentration in the reaction solution (40 μmol/L ATP, 10 mmol/L MgCl2, 5 mmol/L DTT) at the time of the start of a reaction in the absence of the compound was changed to 80, 40, 20, 10, 5, 2.5, 1.25, or 0.625 μmol/L. Then, HTRF ratios were measured by a similar method. The value obtained by subtracting the HTRF ratio at each ATP concentration from the HTRF ratio in the absence of PI-3 kinase y was defined as the value obtained by multiplying reaction rate (v) at each ATP concentration with a constant. The Michaelis-Menten constant Km was then calculated by the Lineweaver-Burk plot method. The Ki value of a compound was calculated by the following formula wherein “μM” denotes “μmol/L.”
Ki value ═IC50 value/(1+test ATP concentration (μM)/Km (μM))

PI3Kβ = PI3Kβ (Homo sapiens, UniProt P42338); test: PI3Kβ inhibitory activity (Ki value); type: biochemical
Method: (§1) According to Example 2 above, after 80 μg/mL PI-3 kinase γ of the enzyme solution (80 μg/mL PI-3 kinase γ, 10 mmol/L MgCl2, 5 mmol/L DTT) was changed to 60 μg/mL PI-3 kinase β, a method similar to the method for measuring PI3Kγ inhibitory activity was used to calculate an inhibition ratio, which was defined as the PI3Kβ inhibitory activity.
According to Example 4 above, a Km value for PI3Kβ was determined to calculate a Ki value.

PI3Kα = PI3Kα (Homo sapiens, UniProt P42336); test: PI3Kα inhibitory activity (Ki value); type: biochemical
Method: as §1, with “0.8” for “60”, “α, an inhibition ratio was calculated by” for “β,”, “activity, and then” for “activity was used to calculate an inhibition ratio, which was”, “PI3Kα” for “PI3Kβ”
The α inhibitory activity (Ki value) of a compound was evaluated according to the following procedure.
According to Example 4 above, a Km value for PI3Kα was determined to calculate a Ki value.

CYP3A4 = target: T2, CYP3A4 (Homo sapiens, UniProt P08684); test: CYP3A4 fluorescence MBI test; type: in vitro ADME; settings: difference in IC50 with 0 or 30 minutes pre-reaction; CYP3A4 expressed in E. coli, substrate 7-BFC
T2 construct: host or cells: E. coli
Procedure, shortened: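 E. coli-expressed CYP3A4 debenzylating 5.6 μmol/L 7-BFC to fluorescent 7-HFC (Ex 420/Em 535 nm) in K-Pi pH 7.4 at 25° C, 15 min reaction. NADPH pre-incubation of 0 or 30 min, with 10-fold dilution before reaction. IC50 from 0.625–20 μmol/L (6 points); (+) for an IC50 shift ≥5 μmol/L, (−) for ≤3 μmol/L.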

PI3Kγ [2] = target: T1, PI3Kγ; test: PI3Kγ inhibitory activity (PI3-kinase HTRF assay, inhibition ratio); type: biochemical; settings: 0.5 h, compound at 10 μmol/L; read-out: PI3Kg Inhibition Ratio % (10 μM)
Procedure, shortened: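 Compound at 10 μmol/L preincubated 10 min with PI3Kγ and PIP2 substrate, then reacted with ATP for 30 minutes at room temperature; the compound, substrate and ATP figures as printed (40 μmol/L each) are solution concentrations. HTRF 665/620 nm ratio read after 18 hours. Inhibition ratio calculated against no-compound (100%) and no-enzyme (0%) controls.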

PI3Kδ = PI3Kδ (Homo sapiens, UniProt O00329); test: PI3Kδ inhibitory activity (Ki value); type: biochemical
Method: as §1, with “158” for “60”, “δ,” for “β,”, “PI3Kδ” for “PI3Kβ”
According to Example 4 above, a Km value for PI3Kδ was determined to calculate a Ki value.

hERG channel (IKr) = target: T3, hERG channel (IKr) (Homo sapiens, UniProt Q12809); test: hERG test (whole-cell patch-clamp, IKr in HEK293 cells); type: cell-based; settings: human, HEK293 cells expressing hERG channel, pH 7.4, inhibition of maximum tail current (IKr), compound 1 μM
T3 construct: expressed in transfected cells; host or cells: HEK293
Procedure, shortened: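 hERG-expressing HEK293 cells, automated whole-cell patch clamp: hold −80 mV, +50 mV for 2 s, then −50 mV for 2 s to record IKr tail current. Compound in extracellular solution (pH 7.4) for 10 min at room temperature; inhibition of maximum tail current calculated versus pre-application and compared with 0.1% DMSO vehicle.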

[3] = Metabolic stability test (pooled human liver microsome); type: in vitro ADME; settings: percentage of test compound remained after 30 minutes, pooled human liver microsome 0.5 mg protein/mL, 1 mmol/L NADPH, 37° C., compound 0.5 μM
Procedure, shortened: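 Pooled human liver microsomes (0.5 mg protein/mL) incubated with compound and 1 mmol/L NADPH at 37° C. in pH 7.4 Tris buffer for 0 or 30 min. Parent quantified by LC/MS/MS after methanol/acetonitrile quench; value is % remaining at 30 min versus 0 min.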

AKT phosphorylation = AKT phosphorylation inhibitory activity in MCP-1 stimulated THP-1 cells (sandwich ELISA); type: cell-based, Human; settings: Homo sapiens, compound at 1 μmol/L, MCP-1 stimulation, read-out: AKT phosphorylation inhibition ratio
Procedure, shortened: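 THP-1 cells (6.7×10^6/mL in HBSS) were preincubated with compound at 1 μmol/L for 5 min at 37 °C, then stimulated for 60 s with HBSS containing 1.2 μg/mL MCP-1 and lysed. Phospho-Akt Ser473/AKT1 sandwich ELISA was read at A450. % inhibition: no compound = 100% activity, no MCP-1 = 0%.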

[4] = class symbols, read-out: PI3K γ Ki
[5] = class symbols, read-out: PI3K β Ki
[6] = class symbols, read-out: PI3K α Ki
[7] = class symbols, read-out: PI3K δ Ki

PI3Kβ, sequence (P42338 whole entry, species assumed): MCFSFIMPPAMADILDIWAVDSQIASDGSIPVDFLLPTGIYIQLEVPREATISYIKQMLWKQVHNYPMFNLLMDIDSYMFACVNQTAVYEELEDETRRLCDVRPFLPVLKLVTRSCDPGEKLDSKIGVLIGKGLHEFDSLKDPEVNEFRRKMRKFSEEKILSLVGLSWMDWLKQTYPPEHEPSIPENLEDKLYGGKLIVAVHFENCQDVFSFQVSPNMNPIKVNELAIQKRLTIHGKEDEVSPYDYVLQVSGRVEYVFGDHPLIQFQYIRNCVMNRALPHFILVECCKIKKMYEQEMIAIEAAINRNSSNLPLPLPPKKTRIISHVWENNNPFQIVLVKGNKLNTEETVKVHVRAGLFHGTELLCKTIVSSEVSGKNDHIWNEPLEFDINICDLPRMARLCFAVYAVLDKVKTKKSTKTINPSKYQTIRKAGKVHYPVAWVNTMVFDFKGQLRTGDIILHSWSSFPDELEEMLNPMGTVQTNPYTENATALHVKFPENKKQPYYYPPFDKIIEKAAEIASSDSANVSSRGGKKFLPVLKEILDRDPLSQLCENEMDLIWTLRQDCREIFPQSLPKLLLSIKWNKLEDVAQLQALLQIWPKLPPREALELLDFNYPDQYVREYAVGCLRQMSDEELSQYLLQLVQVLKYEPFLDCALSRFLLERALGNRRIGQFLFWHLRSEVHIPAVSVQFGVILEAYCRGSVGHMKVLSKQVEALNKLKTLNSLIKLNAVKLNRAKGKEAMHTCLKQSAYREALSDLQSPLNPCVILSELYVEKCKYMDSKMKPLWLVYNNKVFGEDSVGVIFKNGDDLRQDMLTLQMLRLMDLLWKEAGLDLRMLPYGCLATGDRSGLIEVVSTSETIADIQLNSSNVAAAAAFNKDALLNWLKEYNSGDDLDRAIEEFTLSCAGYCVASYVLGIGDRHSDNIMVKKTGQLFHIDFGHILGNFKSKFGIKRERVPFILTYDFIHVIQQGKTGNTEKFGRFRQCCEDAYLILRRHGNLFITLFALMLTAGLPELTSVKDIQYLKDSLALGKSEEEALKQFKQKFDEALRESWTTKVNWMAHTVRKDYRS
PI3Kβ, sequence (P27986 whole entry partner, species assumed): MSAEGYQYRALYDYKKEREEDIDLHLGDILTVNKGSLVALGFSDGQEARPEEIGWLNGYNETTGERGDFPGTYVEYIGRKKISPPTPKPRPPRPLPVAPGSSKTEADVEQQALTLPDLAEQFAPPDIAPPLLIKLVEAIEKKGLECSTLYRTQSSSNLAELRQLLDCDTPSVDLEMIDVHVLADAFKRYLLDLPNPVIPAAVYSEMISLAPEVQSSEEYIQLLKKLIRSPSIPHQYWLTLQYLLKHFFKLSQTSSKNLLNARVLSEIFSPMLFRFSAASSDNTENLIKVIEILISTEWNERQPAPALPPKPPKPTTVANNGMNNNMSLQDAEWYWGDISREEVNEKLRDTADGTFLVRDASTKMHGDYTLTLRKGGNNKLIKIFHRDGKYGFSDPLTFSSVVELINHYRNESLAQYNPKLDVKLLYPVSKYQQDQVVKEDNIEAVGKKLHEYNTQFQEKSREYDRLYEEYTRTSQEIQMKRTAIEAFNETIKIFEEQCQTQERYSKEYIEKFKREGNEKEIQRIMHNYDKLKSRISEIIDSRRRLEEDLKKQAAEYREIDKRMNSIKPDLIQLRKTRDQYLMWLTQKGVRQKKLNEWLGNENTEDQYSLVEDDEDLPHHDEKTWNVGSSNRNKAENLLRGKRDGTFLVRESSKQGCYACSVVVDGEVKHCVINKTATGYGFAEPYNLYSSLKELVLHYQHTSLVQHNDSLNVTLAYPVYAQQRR
PI3Kα, sequence (P42336 whole entry, species assumed): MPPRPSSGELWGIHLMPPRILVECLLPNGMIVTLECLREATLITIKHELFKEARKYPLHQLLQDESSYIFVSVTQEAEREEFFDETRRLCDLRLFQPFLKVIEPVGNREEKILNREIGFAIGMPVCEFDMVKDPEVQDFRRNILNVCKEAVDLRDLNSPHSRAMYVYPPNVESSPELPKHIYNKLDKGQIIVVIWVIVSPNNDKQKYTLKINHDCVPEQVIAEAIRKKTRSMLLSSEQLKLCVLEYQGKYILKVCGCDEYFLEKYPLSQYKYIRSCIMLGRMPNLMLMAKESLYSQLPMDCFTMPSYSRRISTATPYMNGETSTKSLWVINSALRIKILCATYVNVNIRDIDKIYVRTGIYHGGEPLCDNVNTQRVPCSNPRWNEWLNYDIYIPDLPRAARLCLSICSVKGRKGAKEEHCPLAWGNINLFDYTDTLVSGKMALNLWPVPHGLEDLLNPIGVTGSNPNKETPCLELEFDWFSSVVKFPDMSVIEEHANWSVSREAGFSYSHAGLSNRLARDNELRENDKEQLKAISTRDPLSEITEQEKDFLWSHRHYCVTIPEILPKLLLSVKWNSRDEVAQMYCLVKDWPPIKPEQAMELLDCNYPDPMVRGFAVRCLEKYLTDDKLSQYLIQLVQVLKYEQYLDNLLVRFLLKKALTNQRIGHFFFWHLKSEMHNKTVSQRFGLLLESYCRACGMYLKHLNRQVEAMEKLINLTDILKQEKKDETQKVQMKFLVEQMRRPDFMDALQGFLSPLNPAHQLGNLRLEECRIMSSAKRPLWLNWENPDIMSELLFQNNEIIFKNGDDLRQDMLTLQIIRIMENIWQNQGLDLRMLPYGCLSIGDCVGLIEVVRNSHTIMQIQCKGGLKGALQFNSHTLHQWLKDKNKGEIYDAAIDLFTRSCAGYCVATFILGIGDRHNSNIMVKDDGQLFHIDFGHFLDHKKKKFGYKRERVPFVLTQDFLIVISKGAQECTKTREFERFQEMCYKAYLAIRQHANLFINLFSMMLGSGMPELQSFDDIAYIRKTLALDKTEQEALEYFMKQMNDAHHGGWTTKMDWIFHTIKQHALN
PI3Kα, sequence (P27986 whole entry partner, species assumed): as the sequence (P27986 whole entry partner, species assumed) above
T1 sequence (P48736 whole entry, species assumed): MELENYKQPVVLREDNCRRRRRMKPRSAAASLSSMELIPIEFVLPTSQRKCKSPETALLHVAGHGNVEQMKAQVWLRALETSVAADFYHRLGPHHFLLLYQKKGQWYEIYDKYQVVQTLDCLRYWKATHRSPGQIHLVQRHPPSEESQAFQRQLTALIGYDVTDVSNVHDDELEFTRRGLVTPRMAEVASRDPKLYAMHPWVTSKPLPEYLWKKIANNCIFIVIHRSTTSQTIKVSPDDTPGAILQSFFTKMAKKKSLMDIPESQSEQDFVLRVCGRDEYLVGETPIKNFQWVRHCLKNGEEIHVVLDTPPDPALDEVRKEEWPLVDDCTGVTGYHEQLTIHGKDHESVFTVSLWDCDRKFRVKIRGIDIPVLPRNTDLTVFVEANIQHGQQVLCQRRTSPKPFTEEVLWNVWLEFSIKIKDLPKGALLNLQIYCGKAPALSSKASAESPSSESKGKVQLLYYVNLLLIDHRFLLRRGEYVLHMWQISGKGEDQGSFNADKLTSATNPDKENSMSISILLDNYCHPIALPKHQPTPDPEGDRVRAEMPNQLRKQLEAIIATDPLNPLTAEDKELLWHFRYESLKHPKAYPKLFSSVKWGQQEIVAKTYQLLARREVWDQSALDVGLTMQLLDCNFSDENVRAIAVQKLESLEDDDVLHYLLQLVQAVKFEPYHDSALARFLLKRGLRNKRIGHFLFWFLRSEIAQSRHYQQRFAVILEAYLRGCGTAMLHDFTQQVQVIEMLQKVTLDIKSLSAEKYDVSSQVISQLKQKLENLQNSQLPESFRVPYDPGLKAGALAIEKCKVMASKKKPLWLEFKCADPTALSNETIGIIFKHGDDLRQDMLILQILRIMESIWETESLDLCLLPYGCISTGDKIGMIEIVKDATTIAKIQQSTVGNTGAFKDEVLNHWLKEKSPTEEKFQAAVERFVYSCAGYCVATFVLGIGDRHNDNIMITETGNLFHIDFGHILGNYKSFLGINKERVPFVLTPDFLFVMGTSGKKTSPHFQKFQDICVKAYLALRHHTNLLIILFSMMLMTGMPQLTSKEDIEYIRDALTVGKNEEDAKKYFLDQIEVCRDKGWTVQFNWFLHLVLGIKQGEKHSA
PI3Kδ, sequence (O00329 whole entry, species assumed): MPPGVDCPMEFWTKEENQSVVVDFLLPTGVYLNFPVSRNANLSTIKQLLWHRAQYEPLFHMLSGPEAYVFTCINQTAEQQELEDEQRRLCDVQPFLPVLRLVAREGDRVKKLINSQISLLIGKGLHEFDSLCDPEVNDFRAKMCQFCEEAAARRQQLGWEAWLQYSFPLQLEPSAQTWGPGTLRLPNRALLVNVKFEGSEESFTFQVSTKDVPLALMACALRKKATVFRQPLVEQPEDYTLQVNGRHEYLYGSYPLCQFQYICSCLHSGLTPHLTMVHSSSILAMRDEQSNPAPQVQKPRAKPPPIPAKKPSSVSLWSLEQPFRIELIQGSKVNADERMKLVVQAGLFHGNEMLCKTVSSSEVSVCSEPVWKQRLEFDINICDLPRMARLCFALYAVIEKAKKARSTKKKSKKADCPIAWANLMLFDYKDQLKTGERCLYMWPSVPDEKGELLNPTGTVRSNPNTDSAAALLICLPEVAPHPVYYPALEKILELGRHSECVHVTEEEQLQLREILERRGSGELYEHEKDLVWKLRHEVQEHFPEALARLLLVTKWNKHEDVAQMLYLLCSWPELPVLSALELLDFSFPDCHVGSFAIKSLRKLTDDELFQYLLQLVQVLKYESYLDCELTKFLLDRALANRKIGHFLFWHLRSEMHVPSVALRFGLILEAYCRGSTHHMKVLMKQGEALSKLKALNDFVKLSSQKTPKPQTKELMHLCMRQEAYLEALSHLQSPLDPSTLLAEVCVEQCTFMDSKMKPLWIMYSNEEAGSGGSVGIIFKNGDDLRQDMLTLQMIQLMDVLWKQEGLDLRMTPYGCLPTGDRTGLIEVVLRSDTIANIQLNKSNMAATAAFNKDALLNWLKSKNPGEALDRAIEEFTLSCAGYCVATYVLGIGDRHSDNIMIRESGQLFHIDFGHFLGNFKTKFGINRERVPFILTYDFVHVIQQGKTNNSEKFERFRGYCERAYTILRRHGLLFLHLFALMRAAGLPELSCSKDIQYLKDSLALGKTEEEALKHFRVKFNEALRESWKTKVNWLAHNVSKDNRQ
PI3Kδ, sequence (P27986 whole entry partner, species assumed): as the sequence (P27986 whole entry partner, species assumed) above

Structure (SMILES)	pKi (PI3Kγ [1]; [4])	pKi (PI3Kγ [1]; read-out: PI3Kγ Ki value)	pKi (PI3Kβ; [5])	pKi (PI3Kα; [6])	inhibition at 10 µM (PI3Kγ [2])	pKi (PI3Kδ; [7])	pKi (PI3Kβ; read-out: PI3Kβ Ki value)	pKi (PI3Kα; read-out: PI3Kα Ki value)	pKi (PI3Kδ; read-out: PI3Kδ Ki value)	hLMS_ox(at 0.5 μM) % [3]	MBI (CYP3A4)	inhibition at 10 min, 1 µM (hERG channel (IKr))	inhibition at 1 µM (AKT phosphorylation)
COc1cc(N2CCc3nc(NC(=O)Nc4ccccc4C4=NC(C)(C)CO4)sc3C2)nc(OC)n1 [Compound I-14]	≥ 6.52	7.27	< 5.52	< 5.52	94%	< 5.52	–	–	–	–	(−) (When 3 μmol/L or less, the compound is shown as (−))	–	–
COc1cc(N2CCc3nc(NC(=O)NC4=C(C(=O)NC(C)(C)C)CCC4)sc3C2)nc(OC)n1 [Compound I-28]	≥ 6.52	7.33	≥ 5.52	< 5.52	≥ 95%	≥ 5.52	–	–	–	–	–	–	–
COc1cc(C2(F)CCc3nc(NC(=O)Nc4ccccc4C(=O)NC(C)C)sc3C2)nc(OC)n1 (stereo not shown) [Compound I-83]	≥ 6.52	6.96	< 5.52	< 5.52	≥ 95%	< 5.52	< 4.92	< 4.89	< 4.92	89.1%	–	3.3%	–
CC(C)CCOc1ccccc1NC(=O)Nc1cc2n(n1)CCN2c1ccc2c(c1)CCN(C)C2=O [Compound I-112]	≥ 5.52	5.96	< 5.52	< 5.52	–	≥ 5.52	< 4.96	5.12	5.68	–	–	–	–
CC(C)CCc1ccccc1NC(=O)Nc1cc2n(n1)CCN2c1ccc2c(c1)CCN(C)C2=O [Compound I-113]	≥ 5.52	5.64	< 5.52	< 5.52	–	≥ 5.52	–	–	–	–	–	–	–
CC(C)CCOc1ccccc1NC(=O)Nc1cn2nc(-c3cccc(S(C)(=O)=O)c3)ccc2n1 [Compound I-126]	≥ 6.52	7.21	≥ 5.52	< 5.52	–	≥ 5.52	–	–	–	–	–	–	–
COc1cc(-c2ccc3nc(NC(=O)Nc4ccccc4OCCC(C)C)sc3c2)nc(OC)n1 [Compound I-213]	≥ 6.52	7.24	< 5.52	< 5.52	–	< 5.52	–	–	–	–	–	–	–
COc1cncc(-c2ccc3nc(NC(=O)Nc4ccccc4OCCC(C)C)nn3c2)c1 [Compound I-216]	≥ 6.52	6.64	≥ 5.52	< 5.52	≥ 95%	< 5.52	–	–	–	–	–	–	–
Cc1cc(N2Cc3sc(NC(=O)Nc4ccccc4C(=O)NC(C)C)nc3C(C)C2)nc(Cl)n1 (stereo not shown) [Compound I-229]	≥ 7.52	8.03	< 5.52	< 5.52	≥ 95%	< 5.52	–	–	–	–	–	–	–

Now from value to molecule, other results behind:

pKi (PI3Kγ [1]; [4])	pKi (PI3Kγ [1]; read-out: PI3Kγ Ki value)	pKi (PI3Kβ; [5])	pKi (PI3Kα; [6])	inhibition at 10 µM (PI3Kγ [2])	pKi (PI3Kδ; [7])	pKi (PI3Kβ; read-out: PI3Kβ Ki value)	pKi (PI3Kα; read-out: PI3Kα Ki value)	pKi (PI3Kδ; read-out: PI3Kδ Ki value)	hLMS_ox(at 0.5 μM) % [3]	Structure (SMILES)	MBI (CYP3A4)	inhibition at 10 min, 1 µM (hERG channel (IKr))	inhibition at 1 µM (AKT phosphorylation)
≥ 7.52	7.60	≥ 5.52	< 5.52	–	≥ 6.52	–	–	–	–	COc1cccc(-c2ccc3nc(NC(=O)Nc4ccccc4C(=O)NC(C)C)cn3n2)c1 [Compound I-123]	–	–	–
≥ 7.52	7.89	≥ 6.52	≥ 5.52	–	≥ 6.52	–	–	–	103%	CC(C)NC(=O)c1ccccc1NC(=O)Nc1cn2nc(-c3cccc(S(C)(=O)=O)c3)ccc2n1 [Compound I-125]	–	1.3%	–
≥ 7.52	8.44	≥ 5.52	< 5.52	≥ 95%	≥ 5.52	–	–	–	–	COc1nc(Cl)cc(N2CCc3nc(NC(=O)Nc4ccccc4C(=O)NC4CCCC4O)sc3C2)n1 (stereo not shown) [Compound I-174]	–	–	81%
≥ 7.52	7.82	≥ 6.52	< 5.52	≥ 95%	< 5.52	–	–	–	–	COc1cncc(-c2ccc3nc(NC(=O)Nc4ccccc4OCCC(C)C)sc3n2)c1 [Compound I-225]	(−) (When 3 μmol/L or less, the compound is shown as (−))	–	–
